Source: patent US11753407B2, “Compounds for treating spinal muscular atrophy” (PTC Therapeutics, Inc., priority 2012, dated 2023)

Columns and labels:
[1] = system: SMN2 minigene mRNA (SMN2-A minigene) in HEK293H cells; assay: SMN2 minigene mRNA splicing RT-qPCR assay in cultured cells; assay type: cell-based, human; settings: Homo sapiens, HEK293-H; concentration increasing full length SMN2 mRNA 1.5-fold relative to vehicle-treated cells; HEK293H cells with SMN2-A minigene, 24 hours, 7-point concentration data; read-out: EC1.5x for production of full length SMN2 mRNA
In short: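 HEK293H cells stably carrying SMN2-A minigene treated with compounds (7-point, 3.16-fold dilutions, duplicates) for 24 h at 37 °C. Full-length exon 7-containing minigene mRNA measured by multiplex RT-qPCR with GAPDH, normalized and expressed relative to vehicle (modified ΔΔCt); EC1.5× is concentration giving 1.5-fold increase.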

[2] = system: Smn protein in SMA patient fibroblast cells (GM03813); assay: Smn protein assay in cultured cells (SMN HTRF); assay type: cell-based, human; settings: SMA patient fibroblast cells, 48 hours; for EC1.5x for Smn protein expression: 7-point concentration curve, SMN HTRF, concentration producing 1.5 times Smn protein vs DMSO vehicle control; for maximum fold (Fold) increase of Smn protein: 7-point concentration data, fold relative to vehicle control
In short: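 SMA patient fibroblasts (5,000/well, DMEM-10% FBS) treated 48 h at 37° C with 7-point, 3.16-fold compound series in triplicate; lysates read by SMN HTRF (665/620 nm ratio). Fold Smn increase over DMSO vehicle derived; EC1.5× is concentration giving 1.5-fold Smn, with maximum fold also reported.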

SMILES	melting point	EC (1.5-fold increase) [1]	EC1.5x for Smn protein expression [2]	maximum fold (Fold) increase of Smn protein [2]
Cc1cn2cc(-c3ccc4nc(C5CCN(C(C)C)CC5)cc(=O)n4c3)ccc2n1 [Compound 461, 7-(2-methylimidazo[1,2-a]pyridin-6-yl)-2-[1-(propan-2-yl)piperidin-4-yl]-4H-pyrido[1,2-a]pyrimidin-4-one]	215 to 218 °C	0.3 to 1 µM	** (an EC1.5× between >1 μM and ≤3 μM is indicated by two stars (**))	**** (a fold increase between >1.5 and ≤1.65 is indicated by four stars (****))
Cc1cn2cc(-c3ccc4nc(C5CCN(C)CC5)cc(=O)n4c3)cc(F)c2n1 [Compound 462, 7-(8-fluoro-2-methylimidazo[1,2-a]pyridin-6-yl)-2-(1-methylpiperidin-4-yl)-4H-pyrido[1,2-a]pyrimidin-4-one]	235 to 238 °C	< 0.1 µM	**** (an EC1.5x≤0.3 μM is indicated by four stars (****))	***** (a fold increase >1.65 is indicated by five stars (*****))
CCN1CC=C(c2ccc3nc(-c4ccc5c(cnn5C)c4)cc(=O)n3c2)CC1 [Compound 463, 7-(1-ethyl-1,2,3,6-tetrahydropyridin-4-yl)-2-(1-methyl-1H-indazol-5-yl)-4H-pyrido[1,2-a]pyrimidin-4-one]	172 to 174 °C	< 0.1 µM	*** (an EC1.5× between >0.3 μM and ≤1 μM is indicated by three stars (***))	***** (a fold increase >1.65 is indicated by five stars (*****))
CCCN1CC=C(c2ccc3nc(-c4ccc5c(cnn5C)c4)cc(=O)n3c2)CC1 [Compound 464, 2-(1-methyl-1H-indazol-5-yl)-7-(1-propyl-1,2,3,6-tetrahydropyridin-4-yl)-4H-pyrido[1,2-a]pyrimidin-4-one]	152 to 154 °C	0.1 to 0.3 µM	** (an EC1.5× between >1 μM and ≤3 μM is indicated by two stars (**))	**** (a fold increase between >1.5 and ≤1.65 is indicated by four stars (****))
CN(C)c1ccc(-c2cc(=O)n3cc(C4CCNCC4)ccc3n2)cn1 [Compound 465, 2-[6-(dimethylamino)pyridin-3-yl]-7-(piperidin-4-yl)-4H-pyrido[1,2-a]pyrimidin-4-one]	208 to 210 °C	0.3 to 1 µM		*** (a fold increase between >1.35 and ≤1.5 is indicated by three stars (***))
CCN1CCN(c2ccc3nc(-c4cc5cnc(C)cn5n4)cc(=O)n3c2)CC1 [Compound 466, 7-(4-ethylpiperazin-1-yl)-2-(6-methylpyrazolo[1,5-a]pyrazin-2-yl)-4H-pyrido[1,2-a]pyrimidin-4-one]	220 to 230 °C	< 0.1 µM	*** (an EC1.5× between >0.3 μM and ≤1 μM is indicated by three stars (***))	***** (a fold increase >1.65 is indicated by five stars (*****))
Cc1cn2nc(-c3cc(=O)n4cc(C5=CCNCC5)ccc4n3)cc2cn1 [Compound 473, 2-(6-methylpyrazolo[1,5-a]pyrazin-2-yl)-7-(1,2,3,6-tetrahydropyridin-4-yl)-4H-pyrido[1,2-a]pyrimidin-4-one]	260 to 265 °C	< 0.1 µM	**** (an EC1.5x≤0.3 μM is indicated by four stars (****))	***** (a fold increase >1.65 is indicated by five stars (*****))
Cn1cc2cc(-c3cc(=O)n4cc(C5=CCNCC5)ccc4n3)ccc2n1 [Compound 474, 2-(2-methyl-2H-indazol-5-yl)-7-(1,2,3,6-tetrahydropyridin-4-yl)-4H-pyrido[1,2-a]pyrimidin-4-one]	239 to 241 °C	< 0.1 µM	**** (an EC1.5x≤0.3 μM is indicated by four stars (****))	**** (a fold increase between >1.5 and ≤1.65 is indicated by four stars (****))

The next lines start with results.

melting point	SMILES	EC (1.5-fold increase) [1]	EC1.5x for Smn protein expression [2]	maximum fold (Fold) increase of Smn protein [2]
240 to 250 °C	Cc1cn2nc(-c3cc(=O)n4cc(N5CCN6CCC[C@@H]6C5)ccc4n3)cc2cn1 [Compound 467, 7-[(8aR)-hexahydropyrrolo[1,2-a]pyrazin-2(1H)-yl]-2-(6-methylpyrazolo[1,5-a]pyrazin-2-yl)-4H-pyrido[1,2-a]pyrimidin-4-one]	< 0.1 µM	**** (an EC1.5x≤0.3 μM is indicated by four stars (****))	***** (a fold increase >1.65 is indicated by five stars (*****))
240 to 242 °C	Cc1cn2nc(-c3cc(=O)n4cc(N5CCC(N(C)C)CC5)ccc4n3)cc2cn1 [Compound 468, 7-[4-(dimethylamino)piperidin-1-yl]-2-(6-methylpyrazolo[1,5-a]pyrazin-2-yl)-4H-pyrido[1,2-a]pyrimidin-4-one]	< 0.1 µM	*** (an EC1.5× between >0.3 μM and ≤1 μM is indicated by three stars (***))	**** (a fold increase between >1.5 and ≤1.65 is indicated by four stars (****))
254 to 256 °C	Cc1cn2nc(-c3cc(=O)n4cc(N5CCN(CCO)CC5)ccc4n3)cc2cn1 [Compound 469, 7-[4-(2-hydroxyethyl)piperazin-1-yl]-2-(6-methylpyrazolo[1,5-a]pyrazin-2-yl)-4H-pyrido[1,2-a]pyrimidin-4-one]	0.1 to 0.3 µM	*** (an EC1.5× between >0.3 μM and ≤1 μM is indicated by three stars (***))	***** (a fold increase >1.65 is indicated by five stars (*****))
159 to 161 °C	CCCN1CCC(c2ccc3nc(-c4ccc5nc(C)cn5c4)cc(=O)n3c2)CC1 [Compound 470, 2-(2-methylimidazo[1,2-a]pyridin-6-yl)-7-(1-propylpiperidin-4-yl)-4H-pyrido[1,2-a]pyrimidin-4-one]	< 0.1 µM	**** (an EC1.5x≤0.3 μM is indicated by four stars (****))	**** (a fold increase between >1.5 and ≤1.65 is indicated by four stars (****))
240 to 244 °C	Cc1cn2nc(-c3cc(=O)n4cc(N5CCN[C@H](C)C5)ccc4n3)cc2cn1 [Compound 472, 7-[(3R)-3-methylpiperazin-1-yl]-2-(6-methylpyrazolo[1,5-a]pyrazin-2-yl)-4H-pyrido[1,2-a]pyrimidin-4-one]	< 0.1 µM	**** (an EC1.5x≤0.3 μM is indicated by four stars (****))	***** (a fold increase >1.65 is indicated by five stars (*****))
216 to 218 °C	CN1CCC(c2ccc3nc(-c4ccc5c(cnn5C)c4)cc(=O)n3c2)CC1 [Compound 475, 2-(1-methyl-1H-indazol-5-yl)-7-(1-methylpiperidin-4-yl)-4H-pyrido[1,2-a]pyrimidin-4-one]	0.3 to 1 µM	** (an EC1.5× between >1 μM and ≤3 μM is indicated by two stars (**))	*** (a fold increase between >1.35 and ≤1.5 is indicated by three stars (***))
